This is an account of results in patent US10105357B2, “Indication of antibiotic drugs for preparation of cancer inhibition pharmaceutical composition” (LAUNX BIOMEDICAL CO., LTD., priority 2014, dated 2018).

Counter-ions that a name gives are not always drawn. Like-named read-outs stand apart in the source and are kept apart here.

The term viability denotes a read-out of living cells in per cent, often relative to untreated cells.

Holding throughout (format): cell-based, human
The test system of test [1] is MKN-45 (Gastric Adenocarcinoma). As to the kind of experiment: Cell viability analysis, gastric cancer MKN-45. Conditions: Homo sapiens.
Test [2] relates to LoVo (Colorectal Adenocarcinoma). As to the kind of experiment: Cell viability analysis, colon cancer LoVo. The following applies: Homo sapiens, LoVo.
Test [3] has as its system HI650 (Lung Adenocarcinoma). As to the kind of experiment: Cell viability analysis, lung cancer HI650. Conditions: Homo sapiens.
Test [4] concerns HepG2 (Hepatocellular Carcinoma). As to the kind of experiment: Cell viability analysis, hepatic cancer HepG2. Conditions: Homo sapiens.
For test [5], the system named is A549 (Lung Adenocarcinoma). As to the kind of experiment: Cell viability analysis, lung cancer A549. Conditions: Homo sapiens.
Another test relates to cancer cell lines. As to the kind of experiment: Cell viability analysis (WST-1) on cancer cell lines. Conditions: drug 10 μM, 72 hours, WST-1; Table 3. A general note: Formazan colour is commonly taken as a measure of viable cells.
In test [6] the test system is PC3 (p53−) (Prostate Adenocarcinoma). As to the kind of experiment: Cell viability analysis, prostate cancer PC3. Conditions: Homo sapiens.
The test system of test [7] is HL-60 (Acute Promyelocytic Leukemia). As to the kind of experiment: Cell viability analysis, leukemia HL-60. Conditions: Homo sapiens.
The test system of test [8] is MCF7 (Mammary Gland, Adenocarcinoma). As to the kind of experiment: Cell viability analysis, breast cancer MCF7. The following applies: Homo sapiens.
Test [9] has as its system HeLa (Cervix Adenocarcinoma). As to the kind of experiment: Cell viability analysis, cervical cancer HeLa. Conditions: Homo sapiens, HeLa.
The subject of test [10] is AGS (Gastric Adenocarcinoma). As to the kind of experiment: Cell viability analysis, gastric cancer AGS. Conditions: Homo sapiens.
The subject of test [11] is TSGH-8301 (Urinary Bladder Carcinoma). As to the kind of experiment: Cell viability analysis, bladder cancer TSGH-8301. Conditions: Homo sapiens.
The test system of test [12] is A375 (Amelanotic Melanoma). As to the kind of experiment: Cell viability analysis, skin cancer A375. Conditions: Homo sapiens.
The mark [13] stands for this setting: MKN-45, 72 h, drug 10 μM, 72 hours, WST-1, OD450 nm, read-out: cell viability (survival rate), MKN-45.
[14] abbreviates: NCI-H1650, 72 h, drug 10 μM, 72 hours, WST-1, OD450 nm, read-out: cell viability (survival rate), H1650.
Where [15] appears, read: HepG2, 72 h, drug 10 μM, 72 hours, WST-1, OD450 nm, read-out: cell viability (survival rate), HepG2.
Setting [16] is: A549, 72 h, drug 10 μM, 72 hours, WST-1, OD450 nm, read-out: cell viability (survival rate), A549.
The mark [17] stands for this setting: 72 h, drug 10 μM, 72 hours, WST-1, OD450 nm, read-out: cell viability (survival rate), PC3.
[18] abbreviates: HL-60, 72 h, drug 10 μM, 72 hours, WST-1, OD450 nm, read-out: cell viability (survival rate), HL-60.
Setting [19] is: MCF7, 72 h, drug 10 μM, 72 hours, WST-1, OD450 nm, read-out: cell viability (survival rate), MCF7.
[20] abbreviates: 72 h, drug 10 μM, 72 hours, WST-1, OD450 nm, read-out: cell viability (survival rate), HeLa.
The mark [21] stands for this setting: 72 h, drug 10 μM, 72 hours, WST-1, OD450 nm, read-out: cell viability (survival rate), AGS.
Setting [22] is: 72 h, drug 10 μM, 72 hours, WST-1, OD450 nm, read-out: cell viability (survival rate), TSGH.
Setting [23] is: A-375, 72 h, drug 10 μM, 72 hours, WST-1, OD450 nm, read-out: cell viability (survival rate), A375.
Where [24] appears, read: MKN-45, 72 h, read-out: cell viability (survival rate), MKN-45, drug 10 μM, 72 hours, WST-1, OD450 nm.
[25] abbreviates: 72 h, read-out: cell viability (survival rate), LoVo, drug 10 μM, 72 hours, WST-1, OD450 nm.
Where [26] appears, read: NCI-H1650, 72 h, read-out: cell viability (survival rate), H1650, drug 10 μM, 72 hours, WST-1, OD450 nm.
[27] abbreviates: HepG2, 72 h, read-out: cell viability (survival rate), HepG2, drug 10 μM, 72 hours, WST-1, OD450 nm.
Where [28] appears, read: A549, 72 h, read-out: cell viability (survival rate), A549, drug 10 μM, 72 hours, WST-1, OD450 nm.
Setting [29] is: 72 h, read-out: cell viability (survival rate), PC3, drug 10 μM, 72 hours, WST-1, OD450 nm.
Where [30] appears, read: HL-60, 72 h, read-out: cell viability (survival rate), HL-60, drug 10 μM, 72 hours, WST-1, OD450 nm.
The mark [31] stands for this setting: MCF7, 72 h, read-out: cell viability (survival rate), MCF7, drug 10 μM, 72 hours, WST-1, OD450 nm.
Setting [32] is: 72 h, read-out: cell viability (survival rate), HeLa, drug 10 μM, 72 hours, WST-1, OD450 nm.
Setting [33] is: 72 h, read-out: cell viability (survival rate), AGS, drug 10 μM, 72 hours, WST-1, OD450 nm.
Setting [34] is: 72 h, read-out: cell viability (survival rate), TSGH, drug 10 μM, 72 hours, WST-1, OD450 nm.
Where [35] appears, read: A-375, 72 h, read-out: cell viability (survival rate), A375, drug 10 μM, 72 hours, WST-1, OD450 nm.

Turning to `Clc1ccc(C(Cn2ccnc2)OCc2c(Cl)cccc2Cl)c(Cl)c1` (stereo not shown) [Isoconazole nitrate (Travogen), Isoconazole nitrate], the viability at 10 µM in test [1] (MKN-45, drug 10 μM, 72 hours, WST-1, OD450 nm, read-out: cell viability (survival rate), MKN-45) came out at 126%; in test [2] (drug 10 μM, 72 hours, WST-1, OD450 nm, read-out: cell viability (survival rate), LoVo), 102%; in test [3] (NCI-H1650, drug 10 μM, 72 hours, WST-1, OD450 nm, read-out: cell viability (survival rate), H1650), 102%; in [4] (HepG2, drug 10 μM, 72 hours, WST-1, OD450 nm, read-out: cell viability (survival rate), HepG2) it was 99.4%; in test [5] (A549, drug 10 μM, 72 hours, WST-1, OD450 nm, read-out: cell viability (survival rate), A549), 91.7%; in [6] (drug 10 μM, 72 hours, WST-1, OD450 nm, read-out: cell viability (survival rate), PC3), 82.5%. For the same compound, the viability at 10 µM amounted to 49.2% in test [7] (HL-60, drug 10 μM, 72 hours, WST-1, OD450 nm, read-out: cell viability (survival rate), HL-60); 95.1% in test [8] (MCF7, drug 10 μM, 72 hours, WST-1, OD450 nm, read-out: cell viability (survival rate), MCF7); 165% in [9] (drug 10 μM, 72 hours, WST-1, OD450 nm, read-out: cell viability (survival rate), HeLa); 74.8% in test [10] (drug 10 μM, 72 hours, WST-1, OD450 nm, read-out: cell viability (survival rate), AGS); 88.2% in test [11] (drug 10 μM, 72 hours, WST-1, OD450 nm, read-out: cell viability (survival rate), TSGH); 95% in [12] (A-375, drug 10 μM, 72 hours, WST-1, OD450 nm, read-out: cell viability (survival rate), A375). In the test on cancer cell lines, the “inhibition effect on different cancer cell lines” value is “significant inhibition effect”.
As for `NC(=O)C(c1ccccc1)(c1ccccc1)[C@@H]1CCN(CCc2ccc3c(c2)CCO3)C1` [Darifenacin HBr], the viability at 10 µM in [1] (setting [13]) is 82.4%; in [2] (72 h, drug 10 μM, 72 hours, WST-1, OD450 nm, read-out: cell viability (survival rate), LoVo) it was 93.5%; in test [3] (setting [14]) it was 126%; in test [4] (setting [15]), 81.6%; in [5] (setting [16]) it was 100%; in [6] (setting [17]), 86.1%. The viability at 10 µM in test [7] (setting [18]) turned out to be 78.2%; in [8] (setting [19]), 59.7%; in test [9] (setting [20]), 87.7%; in [10] (setting [21]), 80.4%; in [11] (setting [22]), 99.8%; in test [12] (setting [23]) it was 60.5%. For the same compound, the “inhibition effect on different cancer cell lines” value in the test with cancer cell lines is “significant inhibition effect”.
For `O=C(O)CCNC(=O)c1ccccc1` [Betamipron], the viability at 10 µM in [1] (setting [24]) was 88.2%; in test [2] (setting [25]) it was 93.5%; in test [3] (setting [26]), 72.8%; in test [4] (setting [27]), 90.9%; in [5] (setting [28]), 72.3%; in test [6] (setting [29]), 92.6%. In addition, the viability at 10 µM in test [7] (setting [30]) was found to be 96.2%; in test [8] (setting [31]), 118%; in test [9] (setting [32]), 75.9%; in [10] (setting [33]), 75.2%; in test [11] (setting [34]), 85.4%; in [12] (setting [35]), 85.8%. The “inhibition effect on different cancer cell lines” value in the test with cancer cell lines is “significant inhibition effect”.
With `Nc1ccc(S(=O)(=O)Nc2ncccn2)cc1` [Sulfadiazine], the viability at 10 µM in [1] (setting [24]) came out at 44.4%; in test [2] (setting [25]) it was 93.6%; in test [3] (setting [26]), 69.2%; in test [4] (setting [27]), 114%; in test [5] (setting [28]), 38.1%; in [6] (setting [29]), 70.1%. The viability at 10 µM is 106% in test [7] (setting [30]); 37.2% in test [8] (setting [31]); 43.7% in test [9] (setting [32]); 91.8% in test [10] (setting [33]); 80.4% in [11] (setting [34]); 79.5% in [12] (setting [35]). The “inhibition effect on different cancer cell lines” value in the test on cancer cell lines is on record as “significant inhibition effect”.
`c1ccc(-c2ccc(C(c3ccccc3)n3ccnc3)cc2)cc1` (stereo not shown) [Bifonazole]: the viability at 10 µM in test [1] (setting [24]) came to 50.5%; in test [2] (setting [25]) it was 81.1%; in test [3] (setting [26]) it was 55.9%; in test [4] (setting [27]), 109%; in test [5] (setting [28]), 79.3%; in test [6] (setting [29]), 78.2%. Further, the viability at 10 µM in [7] (setting [30]) was found to be 119%; in [8] (setting [31]) it was 73.3%; in [9] (setting [32]), 67.2%; in test [10] (setting [33]) it was 64.3%; in [11] (setting [34]), 82.1%; in [12] (setting [35]), 94.9%. The “inhibition effect on different cancer cell lines” value in the test on cancer cell lines is “significant inhibition effect”.
Regarding `NCC[C@H](O)C(=O)N[C@@H]1C[C@H](N)[C@@H](O[C@H]2O[C@H](CN)[C@@H](O)[C@H](O)[C@H]2O)[C@H](O)[C@H]1O[C@H]1O[C@H](CO)[C@@H](O)[C@H](N)[C@H]1O` [Amikacin hydrate], the viability at 10 µM in [1] (setting [13]) stood at 104%; in test [2] (setting [25]) it was 99%; in test [3] (setting [14]), 87.7%; in [4] (setting [15]), 88.4%; in [5] (setting [16]), 111%; in [6] (setting [17]) it was 102%. Also, the viability at 10 µM was determined as 108% in test [7] (setting [18]); 81.4% in [8] (setting [19]); 96.3% in test [9] (setting [20]); 85.8% in test [10] (setting [21]); 138% in test [11] (setting [22]); 87.7% in test [12] (setting [23]). Moreover, the “inhibition effect on different cancer cell lines” value in the test on cancer cell lines was “significant inhibition effect”.
On to `CO/N=C(\C(=O)N[C@@H]1C(=O)N2C(C(=O)O)=C(CSC(=O)c3ccco3)CS[C@H]12)c1csc(N)n1` [Ceftiofur hydrochloride], for which the viability at 10 µM in [1] (setting [24]) worked out at 85.5%; in test [2] (setting [25]), 85%; in [3] (setting [26]), 44%; in test [4] (setting [27]), 91.9%; in test [5] (setting [28]), 61.6%; in [6] (setting [29]), 73.1%. The viability at 10 µM in [7] (setting [30]) turned out to be 92.2%; in test [8] (setting [31]) it was 159%; in test [9] (setting [32]) it was 92.2%; in test [10] (setting [33]) it was 69.4%; in [11] (setting [34]), 50.6%; in test [12] (setting [35]), 92.8%. For the same compound, in the test on cancer cell lines, the “inhibition effect on different cancer cell lines” value is “significant inhibition effect”.
